Tests used:
PIK3CA(C420R) = biological target: T1, PIK3CA(C420R) (Homo sapiens, UniProt P42336, C420R); test: KINOMEscan at 1 μM, PIK3CA(C420R); format: binding; conditions: 1000 nM, read-out: Percent Control
T1 construct: purchased Eurofins DiscoverX KINOMEscan
From the text: (§1) Supplement cells-12-00287-s001.zip/File S2. KinomeScan data for the CAMKK2 probe and negative control.xlsx, sheet "SGC-CAMKK2-1N" | column: Percent Control

CSNK1A1 = biological target: T2, CSNK1A1 (Homo sapiens, UniProt P48729); test: KINOMEscan at 1 μM, CSNK1A1; format: binding; conditions: 1000 nM, read-out: Percent Control
T2 construct: purchased Eurofins DiscoverX KINOMEscan
T2 sequence (P48729 whole entry): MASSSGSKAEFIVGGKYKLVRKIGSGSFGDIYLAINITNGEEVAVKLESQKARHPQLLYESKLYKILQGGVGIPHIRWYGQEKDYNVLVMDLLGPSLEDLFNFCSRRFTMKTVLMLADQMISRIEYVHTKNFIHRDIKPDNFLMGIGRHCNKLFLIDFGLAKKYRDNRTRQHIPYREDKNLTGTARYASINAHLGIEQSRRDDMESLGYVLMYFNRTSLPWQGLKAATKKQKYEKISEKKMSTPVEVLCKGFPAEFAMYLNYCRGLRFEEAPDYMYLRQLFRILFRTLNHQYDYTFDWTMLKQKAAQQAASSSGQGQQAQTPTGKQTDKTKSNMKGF
From the text: as §1

BTK = biological target: T3, BTK (Homo sapiens, UniProt Q06187); test: KINOMEscan at 1 μM, BTK; format: binding; conditions: 1000 nM, read-out: Percent Control
T3 construct: purchased Eurofins DiscoverX KINOMEscan
From the text: as §1

CTK = biological target: T4, CTK (Homo sapiens, UniProt P42679); test: KINOMEscan at 1 μM, CTK; format: binding; conditions: 1000 nM, read-out: Percent Control
T4 construct: purchased Eurofins DiscoverX KINOMEscan
From the text: as §1

CDK7 = biological target: T5, CDK7 (Homo sapiens, UniProt P50613); test: KINOMEscan at 1 μM, CDK7; format: binding; conditions: 1000 nM, read-out: Percent Control
T5 construct: purchased Eurofins DiscoverX KINOMEscan
From the text: as §1

ERN1 = biological target: T6, ERN1 (Homo sapiens, UniProt O75460); test: KINOMEscan at 1 μM, ERN1; format: binding; conditions: 1000 nM, read-out: Percent Control
T6 construct: purchased Eurofins DiscoverX KINOMEscan
From the text: as §1

CSNK2A1 = biological target: T7, CSNK2A1 (Homo sapiens, UniProt P68400); test: KINOMEscan at 1 μM, CSNK2A1; format: binding; conditions: 1000 nM, read-out: Percent Control
T7 construct: purchased Eurofins DiscoverX KINOMEscan
From the text: as §1

MEK4 = biological target: T8, MEK4 (Homo sapiens, UniProt P45985); test: KINOMEscan at 1 μM, MEK4; format: binding; conditions: 1000 nM, read-out: Percent Control
T8 construct: purchased Eurofins DiscoverX KINOMEscan
From the text: as §1

FLT4 = biological target: T9, FLT4 (Homo sapiens, UniProt P35916); test: KINOMEscan at 1 μM, FLT4; format: binding; conditions: 1000 nM, read-out: Percent Control
T9 construct: purchased Eurofins DiscoverX KINOMEscan
From the text: as §1

PIKFYVE = biological target: T10, PIKFYVE (Homo sapiens, UniProt Q9Y2I7); test: KINOMEscan at 1 μM, PIKFYVE; format: binding; conditions: 1000 nM, read-out: Percent Control
T10 construct: purchased Eurofins DiscoverX KINOMEscan
From the text: as §1

AAK1 = biological target: T11, AAK1 (Homo sapiens, UniProt Q2M2I8); test: KINOMEscan at 1 μM, AAK1; format: binding; conditions: 1000 nM, read-out: Percent Control
T11 construct: purchased Eurofins DiscoverX KINOMEscan
From the text: as §1

MELK = biological target: T12, MELK (Homo sapiens, UniProt Q14680); test: KINOMEscan at 1 μM, MELK; format: binding; conditions: 1000 nM, read-out: Percent Control
T12 construct: purchased Eurofins DiscoverX KINOMEscan
T12 sequence (Q14680 whole entry): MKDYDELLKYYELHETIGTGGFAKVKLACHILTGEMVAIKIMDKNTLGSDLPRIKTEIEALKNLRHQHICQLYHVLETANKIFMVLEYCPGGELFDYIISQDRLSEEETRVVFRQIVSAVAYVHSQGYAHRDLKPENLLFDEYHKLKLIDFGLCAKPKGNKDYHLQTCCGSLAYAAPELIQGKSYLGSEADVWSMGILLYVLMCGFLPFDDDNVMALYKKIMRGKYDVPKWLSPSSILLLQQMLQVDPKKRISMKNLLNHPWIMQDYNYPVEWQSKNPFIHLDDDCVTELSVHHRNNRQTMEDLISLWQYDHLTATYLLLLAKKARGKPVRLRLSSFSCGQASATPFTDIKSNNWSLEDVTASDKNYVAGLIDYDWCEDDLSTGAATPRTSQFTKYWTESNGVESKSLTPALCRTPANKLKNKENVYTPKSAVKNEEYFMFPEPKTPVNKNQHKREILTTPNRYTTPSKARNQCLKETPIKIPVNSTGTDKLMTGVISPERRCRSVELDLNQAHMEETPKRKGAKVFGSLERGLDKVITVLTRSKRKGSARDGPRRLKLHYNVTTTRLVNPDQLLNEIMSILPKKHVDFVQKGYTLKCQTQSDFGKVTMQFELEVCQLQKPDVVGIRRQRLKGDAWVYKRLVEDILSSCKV
From the text: as §1

MET(Y1235D) = biological target: T13, MET(Y1235D) (Homo sapiens, UniProt P08581, Y1235D); test: KINOMEscan at 1 μM, MET(Y1235D); format: binding; conditions: 1000 nM, read-out: Percent Control
T13 construct: purchased Eurofins DiscoverX KINOMEscan
From the text: as §1

INSR = biological target: T14, INSR (Homo sapiens, UniProt P06213); test: KINOMEscan at 1 μM, INSR; format: binding; conditions: 1000 nM, read-out: Percent Control
T14 construct: purchased Eurofins DiscoverX KINOMEscan
From the text: as §1

RET(M918T) = biological target: T15, RET(M918T) (Homo sapiens, UniProt P07949, M918T); test: KINOMEscan at 1 μM, RET(M918T); format: binding; conditions: 1000 nM, read-out: Percent Control
T15 construct: purchased Eurofins DiscoverX KINOMEscan
T15 sequence (P07949 29-1114 M918T): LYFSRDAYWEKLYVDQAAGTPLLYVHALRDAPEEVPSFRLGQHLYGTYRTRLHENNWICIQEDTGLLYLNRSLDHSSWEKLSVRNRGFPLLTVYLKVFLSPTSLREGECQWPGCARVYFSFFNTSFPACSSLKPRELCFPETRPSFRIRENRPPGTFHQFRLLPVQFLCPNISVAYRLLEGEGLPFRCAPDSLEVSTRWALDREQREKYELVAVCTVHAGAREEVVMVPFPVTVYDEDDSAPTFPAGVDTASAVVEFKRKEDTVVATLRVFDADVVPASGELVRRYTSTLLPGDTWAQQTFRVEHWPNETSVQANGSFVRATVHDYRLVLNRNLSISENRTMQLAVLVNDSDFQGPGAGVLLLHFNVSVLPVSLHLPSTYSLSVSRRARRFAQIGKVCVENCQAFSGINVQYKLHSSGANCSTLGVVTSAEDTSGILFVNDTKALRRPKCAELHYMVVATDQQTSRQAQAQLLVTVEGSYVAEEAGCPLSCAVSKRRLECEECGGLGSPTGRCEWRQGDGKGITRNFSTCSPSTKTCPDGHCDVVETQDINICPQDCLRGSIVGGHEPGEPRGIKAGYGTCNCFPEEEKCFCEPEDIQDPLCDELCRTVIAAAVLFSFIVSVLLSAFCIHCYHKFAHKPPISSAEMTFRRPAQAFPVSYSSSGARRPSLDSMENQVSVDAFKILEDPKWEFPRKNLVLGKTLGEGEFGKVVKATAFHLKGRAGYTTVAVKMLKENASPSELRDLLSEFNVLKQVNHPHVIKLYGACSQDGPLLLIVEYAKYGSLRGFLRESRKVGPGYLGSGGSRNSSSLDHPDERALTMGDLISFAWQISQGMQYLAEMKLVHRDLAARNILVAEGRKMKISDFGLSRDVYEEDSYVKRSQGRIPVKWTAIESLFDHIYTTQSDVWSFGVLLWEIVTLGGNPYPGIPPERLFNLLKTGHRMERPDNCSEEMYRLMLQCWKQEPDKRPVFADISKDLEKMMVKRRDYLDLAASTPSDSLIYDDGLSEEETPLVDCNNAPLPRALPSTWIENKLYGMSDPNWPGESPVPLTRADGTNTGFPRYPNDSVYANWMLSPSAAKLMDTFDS
From the text: as §1

DCAMKL3 = biological target: T16, DCAMKL3 (Homo sapiens, UniProt Q9C098); test: KINOMEscan at 1 μM, DCAMKL3; format: binding; conditions: 1000 nM, read-out: Percent Control
T16 construct: purchased Eurofins DiscoverX KINOMEscan
From the text: as §1

FRK = biological target: T17, FRK (Homo sapiens, UniProt P42685); test: KINOMEscan binding assay at 1 μM, FRK; conditions: Compound Concentration 1000 nM; read-out: Percent Control
T17 construct: purchased Eurofins DiscoverX KINOMEscan
From the text: as §1

MET(M1250T) = biological target: T18, MET(M1250T) (Homo sapiens, UniProt P08581, M1250T); test: KINOMEscan binding assay at 1 μM, MET(M1250T); conditions: Compound Concentration 1000 nM; read-out: Percent Control
T18 construct: purchased Eurofins DiscoverX KINOMEscan
From the text: as §1

PDPK1 = biological target: T19, PDPK1 (Homo sapiens, UniProt O15530); test: KINOMEscan binding assay at 1 μM, PDPK1; conditions: Compound Concentration 1000 nM; read-out: Percent Control
T19 construct: purchased Eurofins DiscoverX KINOMEscan
From the text: as §1

PIK3CD = biological target: T20, PIK3CD (Homo sapiens, UniProt O00329); test: KINOMEscan binding assay at 1 μM, PIK3CD; conditions: Compound Concentration 1000 nM; read-out: Percent Control
T20 construct: purchased Eurofins DiscoverX KINOMEscan
From the text: as §1

CDK3 = biological target: T21, CDK3 (Homo sapiens, UniProt Q00526); test: KINOMEscan 1 μM, CDK3; format: binding; conditions: 1000 nM; Entrez CDK3; read-out: Percent Control
T21 construct: purchased Eurofins DiscoverX KINOMEscan
T21 sequence (Q00526 whole entry): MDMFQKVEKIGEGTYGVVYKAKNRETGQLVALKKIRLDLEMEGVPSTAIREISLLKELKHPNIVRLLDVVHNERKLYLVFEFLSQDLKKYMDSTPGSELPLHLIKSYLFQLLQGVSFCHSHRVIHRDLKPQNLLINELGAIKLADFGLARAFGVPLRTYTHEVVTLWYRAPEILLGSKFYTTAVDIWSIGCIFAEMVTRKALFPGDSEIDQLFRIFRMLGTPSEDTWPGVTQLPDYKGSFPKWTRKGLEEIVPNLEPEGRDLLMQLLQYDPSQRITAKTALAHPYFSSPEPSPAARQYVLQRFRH
From the text: (§2) Supplement cells-12-00287-s001.zip/File S2. KinomeScan data for the CAMKK2 probe and negative control.xlsx, sheet "SGC-CAMKK2-1" | column: Percent Control

BLK = biological target: T22, BLK (Homo sapiens, UniProt P51451); test: KINOMEscan 1 μM, BLK; format: binding; conditions: 1000 nM; Entrez BLK; read-out: Percent Control
T22 construct: purchased Eurofins DiscoverX KINOMEscan
From the text: as §2

MYLK = biological target: T23, MYLK (Homo sapiens, UniProt Q15746); test: KINOMEscan 1 μM, MYLK; format: binding; conditions: 1000 nM; Entrez MYLK; read-out: Percent Control
T23 construct: purchased Eurofins DiscoverX KINOMEscan
From the text: as §2

TIE1 = biological target: T24, TIE1 (Homo sapiens, UniProt P35590); test: KINOMEscan 1 μM, TIE1; format: binding; conditions: 1000 nM; Entrez TIE1; read-out: Percent Control
T24 construct: purchased Eurofins DiscoverX KINOMEscan
From the text: as §2

SRPK1 = biological target: T25, SRPK1 (Homo sapiens, UniProt Q96SB4); test: KINOMEscan 1 μM, SRPK1; format: binding; conditions: 1000 nM; Entrez SRPK1; read-out: Percent Control
T25 construct: purchased Eurofins DiscoverX KINOMEscan
From the text: as §2

TGFBR2 = biological target: T26, TGFBR2 (Homo sapiens, UniProt P37173); test: KINOMEscan 1 μM, TGFBR2; format: binding; conditions: 1000 nM; Entrez TGFBR2; read-out: Percent Control
T26 construct: purchased Eurofins DiscoverX KINOMEscan
From the text: as §2

RIPK1 = biological target: T27, RIPK1 (Homo sapiens, UniProt Q13546); test: KINOMEscan 1 μM, RIPK1; format: binding; conditions: 1000 nM; Entrez RIPK1; read-out: Percent Control
T27 construct: purchased Eurofins DiscoverX KINOMEscan
T27 sequence (Q13546 whole entry): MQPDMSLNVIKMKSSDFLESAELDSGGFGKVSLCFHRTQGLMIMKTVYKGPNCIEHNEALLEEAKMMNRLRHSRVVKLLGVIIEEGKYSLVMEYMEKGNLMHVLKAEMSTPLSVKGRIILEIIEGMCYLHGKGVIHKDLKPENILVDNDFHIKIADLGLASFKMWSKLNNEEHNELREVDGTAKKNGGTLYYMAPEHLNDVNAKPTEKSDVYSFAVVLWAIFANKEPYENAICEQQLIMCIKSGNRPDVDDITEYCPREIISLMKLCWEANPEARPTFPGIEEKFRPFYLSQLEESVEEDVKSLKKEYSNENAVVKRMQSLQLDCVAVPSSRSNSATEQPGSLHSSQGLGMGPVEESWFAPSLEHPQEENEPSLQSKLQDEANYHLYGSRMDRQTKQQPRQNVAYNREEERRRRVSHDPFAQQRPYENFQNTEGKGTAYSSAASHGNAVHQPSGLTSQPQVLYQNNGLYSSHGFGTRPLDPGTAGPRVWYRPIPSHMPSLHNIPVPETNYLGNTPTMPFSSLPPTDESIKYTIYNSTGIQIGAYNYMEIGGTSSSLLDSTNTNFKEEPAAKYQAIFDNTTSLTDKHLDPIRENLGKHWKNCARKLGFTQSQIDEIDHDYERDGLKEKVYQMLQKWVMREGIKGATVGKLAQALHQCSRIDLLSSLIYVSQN
From the text: as §2

ANKK1 = biological target: T28, ANKK1 (Homo sapiens, UniProt Q8NFD2); test: KINOMEscan 1 μM, ANKK1; format: binding; conditions: 1000 nM; Entrez ANKK1; read-out: Percent Control
T28 construct: purchased Eurofins DiscoverX KINOMEscan
From the text: as §2

DRAK2 = biological target: T29, DRAK2 (Homo sapiens, UniProt O94768); test: KINOMEscan 1 μM, DRAK2; format: binding; conditions: 1000 nM; Entrez STK17B; read-out: Percent Control
T29 construct: purchased Eurofins DiscoverX KINOMEscan
T29 sequence (O94768 whole entry): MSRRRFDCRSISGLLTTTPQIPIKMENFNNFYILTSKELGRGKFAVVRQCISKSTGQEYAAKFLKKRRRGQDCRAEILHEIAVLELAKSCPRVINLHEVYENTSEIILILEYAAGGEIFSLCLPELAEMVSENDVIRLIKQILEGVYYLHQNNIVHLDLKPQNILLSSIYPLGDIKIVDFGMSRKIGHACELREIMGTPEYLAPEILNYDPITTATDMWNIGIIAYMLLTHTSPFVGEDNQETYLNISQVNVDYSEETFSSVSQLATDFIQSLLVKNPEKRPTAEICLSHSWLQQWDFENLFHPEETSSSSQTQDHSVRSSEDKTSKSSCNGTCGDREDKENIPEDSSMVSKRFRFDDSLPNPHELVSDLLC
From the text: as §2

HASPIN = biological target: T30, HASPIN (Homo sapiens, UniProt Q8TF76); test: KINOMEscan 1 μM, HASPIN; format: binding; conditions: 1000 nM; Entrez GSG2; read-out: Percent Control
T30 construct: purchased Eurofins DiscoverX KINOMEscan
From the text: as §2

IKK-epsilon = biological target: T31, IKK-epsilon (Homo sapiens, UniProt Q14164); test: KINOMEscan 1 μM, IKK-epsilon; format: binding; conditions: 1000 nM; Entrez IKBKE; read-out: Percent Control
T31 construct: purchased Eurofins DiscoverX KINOMEscan
From the text: as §2

PDGFRA = biological target: T32, PDGFRA (Homo sapiens, UniProt P16234); test: DiscoverX KINOMEscan binding assay at 1 μM, PDGFRA; conditions: Compound Concentration 1000 nM, read-out: Percent Control
T32 construct: purchased Eurofins DiscoverX KINOMEscan
From the text: as §2

PIK3CA(E542K) = biological target: T33, PIK3CA(E542K) (Homo sapiens, UniProt P42336, E542K); test: DiscoverX KINOMEscan binding assay at 1 μM, PIK3CA(E542K); conditions: Compound Concentration 1000 nM, read-out: Percent Control
T33 construct: purchased Eurofins DiscoverX KINOMEscan
T33 sequence (P42336 whole entry E542K): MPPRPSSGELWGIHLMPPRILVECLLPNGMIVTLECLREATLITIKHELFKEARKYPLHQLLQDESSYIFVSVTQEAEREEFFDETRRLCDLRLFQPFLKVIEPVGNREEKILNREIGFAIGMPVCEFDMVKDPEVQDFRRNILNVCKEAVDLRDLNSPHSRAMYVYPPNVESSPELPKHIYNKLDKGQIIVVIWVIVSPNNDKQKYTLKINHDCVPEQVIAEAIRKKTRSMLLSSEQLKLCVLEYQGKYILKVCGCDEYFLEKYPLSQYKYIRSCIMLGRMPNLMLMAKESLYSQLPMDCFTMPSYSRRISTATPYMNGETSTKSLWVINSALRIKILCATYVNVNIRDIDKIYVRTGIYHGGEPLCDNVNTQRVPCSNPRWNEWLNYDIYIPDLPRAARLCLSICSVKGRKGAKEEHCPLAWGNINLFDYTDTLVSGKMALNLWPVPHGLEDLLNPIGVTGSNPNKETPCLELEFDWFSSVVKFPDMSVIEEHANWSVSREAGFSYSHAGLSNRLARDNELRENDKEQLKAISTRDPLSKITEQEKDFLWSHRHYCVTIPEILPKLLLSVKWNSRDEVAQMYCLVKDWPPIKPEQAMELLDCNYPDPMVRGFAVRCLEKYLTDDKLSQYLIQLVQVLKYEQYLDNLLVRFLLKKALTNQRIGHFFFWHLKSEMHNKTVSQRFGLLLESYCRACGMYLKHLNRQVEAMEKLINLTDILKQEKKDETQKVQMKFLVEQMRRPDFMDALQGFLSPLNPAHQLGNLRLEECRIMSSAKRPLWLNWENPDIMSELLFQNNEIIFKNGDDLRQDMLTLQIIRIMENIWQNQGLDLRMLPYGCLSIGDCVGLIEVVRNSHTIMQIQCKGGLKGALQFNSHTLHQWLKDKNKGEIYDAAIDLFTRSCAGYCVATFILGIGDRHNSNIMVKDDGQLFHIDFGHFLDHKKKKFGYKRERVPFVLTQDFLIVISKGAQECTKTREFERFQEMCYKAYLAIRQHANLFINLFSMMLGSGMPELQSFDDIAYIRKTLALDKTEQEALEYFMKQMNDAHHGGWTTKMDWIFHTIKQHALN
From the text: as §2

PIK3CA(E545A) = biological target: T34, PIK3CA(E545A) (Homo sapiens, UniProt P42336, E545A); test: DiscoverX KINOMEscan binding assay at 1 μM, PIK3CA(E545A); conditions: Compound Concentration 1000 nM, read-out: Percent Control
T34 construct: purchased Eurofins DiscoverX KINOMEscan
T34 sequence (P42336 whole entry E545A): as the sequence (P42336 whole entry E542K) above, with K542E, E545A counted along it
From the text: as §2

PIP5K2B = biological target: T35, PIP5K2B (Homo sapiens, UniProt P78356); test: DiscoverX KINOMEscan binding assay at 1 μM, PIP5K2B; conditions: PIP5K2B (PIP4K2B); Compound Concentration 1000 nM; read-out: Percent Control
T35 construct: purchased Eurofins DiscoverX KINOMEscan
T35 sequence (P78356 whole entry): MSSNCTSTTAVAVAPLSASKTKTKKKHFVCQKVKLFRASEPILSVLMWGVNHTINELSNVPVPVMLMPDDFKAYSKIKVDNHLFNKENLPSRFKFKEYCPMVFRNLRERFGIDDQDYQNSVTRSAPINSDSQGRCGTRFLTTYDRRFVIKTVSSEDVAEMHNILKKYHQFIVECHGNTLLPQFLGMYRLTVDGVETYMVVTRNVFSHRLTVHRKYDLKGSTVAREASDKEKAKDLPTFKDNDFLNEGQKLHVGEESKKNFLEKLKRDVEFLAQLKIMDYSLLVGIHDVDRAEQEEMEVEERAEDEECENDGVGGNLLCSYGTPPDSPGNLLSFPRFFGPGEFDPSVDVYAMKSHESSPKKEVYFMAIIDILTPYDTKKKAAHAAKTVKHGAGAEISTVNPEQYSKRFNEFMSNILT
From the text: as §2

T1 sequence (P42336 whole entry C420R): as the sequence (P42336 whole entry E542K) above, with C420R, K542E counted along it

## O=C(O)c1ccc(-c2coc3ncc(-c4ccccc4)cc23)cc1Cl [SGC-CAMKK2-1N (UNC-YL-83)]
PIK3CA(C420R)
  remaining binding at 1 µM: 0%
CSNK1A1
  remaining binding at 1 µM: 44%
BTK
  remaining binding at 1 µM: 60%
CTK
  remaining binding at 1 µM: 63%
CDK7
  remaining binding at 1 µM: 66%
ERN1
  remaining binding at 1 µM: 76%
CSNK2A1
  remaining binding at 1 µM: 80%
MEK4
  remaining binding at 1 µM: 81%
FLT4
  remaining binding at 1 µM: 82%
PIKFYVE
  remaining binding at 1 µM: 84%
AAK1
  remaining binding at 1 µM: 87%
MELK
  remaining binding at 1 µM: 88%
MET(Y1235D)
  remaining binding at 1 µM: 91%
INSR
  remaining binding at 1 µM: 93%
RET(M918T)
  remaining binding at 1 µM: 99%
DCAMKL3
  remaining binding at 1 µM: 100%
FRK
  remaining binding at 1 µM: 100%
MET(M1250T)
  remaining binding at 1 µM: 100%
PDPK1
  remaining binding at 1 µM: 100%
PIK3CD
  remaining binding at 1 µM: 100%

## Cc1cccc(-c2cnc3occ(-c4ccc(C(=O)O)c(C5CCCC5)c4)c3c2)c1 [SGC-CAMKK2-1 (YL-36)]
CDK3
  remaining binding at 1 µM: 59%
BLK
  remaining binding at 1 µM: 70%
MYLK
  remaining binding at 1 µM: 76%
TIE1
  remaining binding at 1 µM: 77%
SRPK1
  remaining binding at 1 µM: 80%
TGFBR2
  remaining binding at 1 µM: 91%
RIPK1
  remaining binding at 1 µM: 93%
ANKK1
  remaining binding at 1 µM: 100%
DRAK2
  remaining binding at 1 µM: 100%
HASPIN
  remaining binding at 1 µM: 100%
IKK-epsilon
  remaining binding at 1 µM: 100%
PDGFRA
  remaining binding at 1 µM: 100%
PIK3CA(E542K)
  remaining binding at 1 µM: 100%
PIK3CA(E545A)
  remaining binding at 1 µM: 100%
PIP5K2B
  remaining binding at 1 µM: 100%
